These are literature values, as cited in patent publication US20190124865A1, “APPARATUS AND METHOD FOR INACTIVATING PLANT PATHOGENS WHILE STIMULATING PLANT GROWTH VIA SELECTIVE APPLICATION OF OXYGEN/OZONE GAS MIXTURES, AND CARBON DIOXIDE, IN A MULTI COMPARTMENT SYSTEM” (priority 2017, published 2019).

For one data set, the system named is plants. The settings on record: 30% increase in ambient carbon dioxide, in the order of 100 ppm to 150 ppm.
The test system of a further data set is coliform bacteria. The settings on record: ozone 5% per volume admixed with oxygen.
In a further data set the test system is fungal species. The settings on record: ozone 5% by volume, given time.
For a further data set, the system named is Aeromonas hydrophilia. The following applies: ozone 5% per volume admixed with oxygen.
The subject of another data set is staphylococcus aureus. The following applies: ozone 5% per volume admixed with oxygen.
The conditions of data set [1]: gaseous milieu, room temperature.

As to `O=C=O` [carbon dioxide], the “increase in plant growth” value in the data set with plants was 30%.
Turning to `O=[O+][O-]` [Ozone, ozone], the “inactivation of coliform bacteria” value with coliform bacteria is listed as “rapidly inactivates”. The “effect on fungal species” value in the data set on fungal species is “inexorable distress to any and all fungal species, leading to their demise”. The “inactivation of Aeromonas hydrophilia” value in the data set with Aeromonas hydrophilia is on record as “rapidly inactivates”. Moreover, the “inactivation of staphylococcus aureus” value with staphylococcus aureus is reported as “rapidly inactivates”. Also, the “rate of reversion to pure oxygen” value in data set [1] is “about 50 % per hour”.
